Measurements as given in patent US6787541B1, “Thieno-and furopyrimidine derivatives as A2A-receptor antagonists” (Vernalis Research Limited, priority 1999, dated 2004).
Structures can show the parent of a compound that is named as a salt.

Test system: not given
Assay: not given

Compound | melting point
COc1nc(C(=O)c2cccs2)c2scc(C)c2n1 [Example 37, 2-Methoxy-7-methylthieno[3,2-d]pyrimidin-4-yl 2-thienylmethanone] | 144 to 146 °C
CCOC(=O)CCCNc1nc(C(=O)c2cccs2)c2sccc2n1 [Example 76, Ethyl 4-(4-(2-thienylcarbonyl)thieno[3,2-d]pyrimidin-2-ylamino)butanoate] | 143.3 to 143.7 °C
Cc1ccsc1C(=O)c1nc(NCCO)nc2ccsc12 [Example 118, 2-(2-Hydroxyethylamino)thieno[3,2-d]pyrimidin-4-yl 3-methyl-2-thienylmethanone] | 194.5 to 195 °C
Cc1c(C(=O)c2nc(C(F)(F)F)nc3ccsc23)sc2ccccc12 [Example 62, 3-Methylbenzothiophene-2-yl 2-trifluoromethylthieno[3,2-d]pyrimidin-4-ylmethanone] | 262 to 263 °C
NCCNc1nc(C(=O)c2cccs2)c2sccc2n1 (as salt: hydrochloride) [Example 55, 2-(2-Aminoethylamino)thieno[3,2-d]pyrimidin-4-yl 2-thienylmethanone dihydrochloride] | > 190 °C (dec.)
COc1ccc(C(=O)c2nc(C(F)(F)F)nc3ccsc23)cc1 [Example 27, 4-Methoxyphenyl 2-trifluoromethylthieno[3,2-d]pyrimidin-4-ylmethanone] | 155 to 157 °C
COC(=O)CNc1nc(C(=O)c2cccs2)c2sccc2n1 [Example 123, Methyl (4-(2-thienylcarbonyl)thieno[3,2-d]pyrimidin-2-ylamino)acetate] | 144.6 to 145.2 °C
O=C(c1ccc([N+](=O)[O-])cc1)c1nc(C(F)(F)F)nc2ccsc12 [Example 31, 4-Nitrophenyl 2-trifluoromethylthieno[3,2-d]pyrimidin-4-ylmethanone] | 185 to 186 °C
CCc1nc(C(O)c2cccs2)c2sccc2n1 (stereo not drawn) [Example 36, 2-Ethyl-α-(2-thienyl)thieno[3,2-d]pyrimidine-4-methanol] | 147 to 149 °C
OC(c1cccs1)c1nc(C(F)(F)F)nc2ccsc12 (stereo not drawn) [Example 41, α-(2-Thienyl)-2-trifluoromethylthieno[3,2-d]pyrimidine-4-methanol] | 157 to 158 °C
O=C(c1cc(Cl)cc(Cl)c1)c1nc(C(F)(F)F)nc2ccsc12 [Example 10, 3,5-Dichlorophenyl 2-trifluoromethylthieno[3,2-d]pyrimidin-4-ylmethanone] | 147 to 149 °C
CN(C)CCNC(=O)c1nc(C(=O)c2cccs2)c2sccc2n1 [Example 134, N-(2-Dimethylaminoethyl)-4-(2-thienylcarbonyl)thieno[3,2-d]pyrimidin-2-carboxamide] | 143.6 to 144.7 °C
CC(=O)NNc1nc(C(=O)c2cccs2)c2sccc2n1 [Example 130, Acetic acid 2-(4-(2-thienylcarbonyl)thieno[3,2-d]pyrimidin-2-yl)hydrazide] | 258.3 to 259 °C
CC(=O)NCCNc1nc(C(=O)c2cccs2)c2sccc2n1 [Example 90, N-(2-(4-(2-Thienylcarbonyl)thieno[3,2-d]pyrimidin-2-yl)aminoethyl)acetamide] | 212.2 to 212.5 °C
CC(C)(CO)Nc1nc(C(=O)c2cccs2)c2sccc2n1 [Example 119, 2-(1-Hydroxy-2-methyl-2-propylamino)thieno[3,2-d]pyrimidin-4-yl 2-thienylmethanone] | 126.4 to 127.1 °C
O=C(c1cccs1)c1nc(NCc2ccco2)nc2ccsc12 [Example 96, 2-(2-Furylmethylamino)thieno[3,2-d]primidin-4-yl 2-thienylmethanone] | > 140 °C (dec.)
CCOC(=O)c1nc(C(=O)c2cccs2)c2sccc2n1 [Example 122, Ethyl 4-(2-thienylcarbonyl)thieno[3,2-d]pyrimidin-2-carboxylate] | 185.7 to 186.2 °C
C=CCNC(=O)NNc1nc(C(=O)c2cccs2)c2sccc2n1 [Example 131, N-Allyl-2-(4-(2-thienylcarbonyl)thieno[3,2-d]pyrimidin-2-yl)hydrazinecarboxamide] | 252.8 to 253.3 °C
CN(C)C(=O)c1nc(C(=O)c2cccs2)c2sccc2n1 [Example 136, N,N-Dimethyl-4-(2-thienylcarbonyl)thieno[3,2-d]pyrimidin-2-carboxamide] | 173.1 to 174 °C
NC(=O)CNc1nc(C(=O)c2cccs2)c2sccc2n1 [Example 125, (4-(2-Thienylcarbonyl)thieno[3,2-d]pyrimidin-2-ylamino)acetamide] | 232.1 to 233.7 °C
O=C(c1cccs1)c1nc(N2CCCC2)nc2ccsc12 [Example 109, 2-(Pyrrolidin-1-yl)thieno[3,2-d]pyrimidin-4-yl 2-thienylmethanone] | 229.1 to 229.4 °C
Cc1ccsc1C(=O)c1nc(N2CCC[C@@H]2CO)nc2ccsc12 [Example 129, (2R)-2-(2-Hydroxymethylpyrrolidin-1-yl)thieno[3,2-d]pyrimidin-4-yl 3-methyl-2-thienylmethanone] | 96.2 to 96.9 °C
COC(=O)c1nc(C(=O)c2cccs2)c2sccc2n1 [Example 126, Methyl 4-(2-thienylcarbonyl)thieno[3,2-d]pyrimidin-2-carboxylate] | 232.8 to 233 °C

Biological target: T1, human adenosine A2A receptors expressed in HEK-293 cells (Homo sapiens, UniProt P29274)
T1 construct: expressed in transfected cells; host or cells: HEK-293 cells
Assay: Binding affinities at hA2A receptors, displacement of [3H]-CGS 21680

T1 sequence (P29274 whole entry): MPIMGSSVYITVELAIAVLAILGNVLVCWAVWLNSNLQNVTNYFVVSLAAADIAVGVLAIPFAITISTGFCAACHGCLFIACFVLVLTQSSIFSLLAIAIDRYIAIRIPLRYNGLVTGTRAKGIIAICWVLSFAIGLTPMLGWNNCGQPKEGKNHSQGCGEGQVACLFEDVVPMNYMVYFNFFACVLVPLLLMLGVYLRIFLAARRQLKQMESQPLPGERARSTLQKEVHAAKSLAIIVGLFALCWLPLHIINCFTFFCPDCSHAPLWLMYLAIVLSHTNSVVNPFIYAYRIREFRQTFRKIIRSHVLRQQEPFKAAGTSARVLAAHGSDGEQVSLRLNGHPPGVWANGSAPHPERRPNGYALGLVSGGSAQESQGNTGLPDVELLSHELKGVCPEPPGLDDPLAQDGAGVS

Compound | Ki
O=C(c1cccs1)c1nc(NCCNC(=O)C2CCCCC2)nc2ccsc12 [Example 151, N-(2-(4-(2-Thienylcarbonyl)thieno[3,2-d]pyrimidin-2-yl)aminoethyl)cyclohexylcarboxamide] | 7 nM
CC(C)(C)OC(=O)N1CCN(c2nc(C(=O)c3cccs3)c3sccc3n2)CC1 [Example 84, Tert-butyl 4-(4-(2-thienylcarbonyl)thieno[3,2-d]pyrimidin-2-yl)piperazinecarboxylate] | 392 nM
COc1nc(C(=O)c2cccs2)c2scc(C)c2n1 [Example 37, 2-Methoxy-7-methylthieno[3,2-d]pyrimidin-4-yl 2-thienylmethanone] | 361 nM
CCOC(=O)CCCNc1nc(C(=O)c2cccs2)c2sccc2n1 [Example 76, Ethyl 4-(4-(2-thienylcarbonyl)thieno[3,2-d]pyrimidin-2-ylamino)butanoate] | 8 nM
Cc1ccsc1C(=O)c1nc(NCCO)nc2ccsc12 [Example 118, 2-(2-Hydroxyethylamino)thieno[3,2-d]pyrimidin-4-yl 3-methyl-2-thienylmethanone] | 7 nM
O=C(c1cccs1)c1nc(NCCCn2ccnc2)nc2ccsc12 [Example 104, 2-(3-(1H-Imidazol-1-yl)propylamino)thieno[3,2-d]pyrimidin-4-yl 2-thienylmethanone] | 2 nM
α-(3-Thienyl-2-trifluoromethylthieno[3,2- d]pyrimidine-4-acetonitrile [Example 17] | 895 nM
CN(C)CCNc1nc(C(=O)c2cccs2)c2sccc2n1 [Example 66, 2-(2-Dimethylaminoethylamino)thieno[3,2-d]pyrimidin-4-yl 2-thienylmethanone dihydrochloride] | 218 nM
O=C(c1cccs1)c1nc(NCC(O)CO)nc2ccsc12 (racemic) [Example 93, (2RS)-2-(2,3-Dihydroxypropylamino)thieno[3,2-d]pyrimidin-4-yl 2-thienylmethanone] | 7 nM
COC(=O)NCCNc1nc(C(=O)c2cccs2)c2sccc2n1 [Example 155, Methyl (2-(4-(2-thienylcarbonyl)thieno[3,2-d]pyrimidin-2-yl)aminoethyl)carbamate] | 4 nM
C=CCNC(=O)NCCNc1nc(C(=O)c2cccs2)c2sccc2n1 [Example 159, N-Allyl-N′-(2-(4-(2-thienylcarbonyl)thieno[3,2-d]pyrimidin-2-yl)aminoethyl)urea] | 8 nM
CC(CO)Nc1nc(C(=O)c2cccs2)c2sccc2n1 (racemic) [Example 89, (2RS)-2-(1-Hydroxy-2-propylamino)thieno[3,2-d]pyrimidin-4-yl 2-thienylmethanone] | 3 nM
CN(CCO)c1nc(C(=O)c2cccs2)c2sccc2n1 [Example 82, 2-(N-(2-Hydroxyethyl)-N-methylamino)thieno[3,2-d]pyrimidin-4-yl 2-thienylmethanone] | 29 nM
C[C@@H](O)CNc1nc(C(=O)c2cccs2)c2sccc2n1 [Example 103, (2R)-2-(2-Hydroxypropylamino)thieno[3,2-d]pyrimidin-4-yl 2-thienylmethanone] | 6 nM
NCCNc1nc(C(=O)c2cccs2)c2sccc2n1 [Example 55, 2-(2-Aminoethylamino)thieno[3,2-d]pyrimidin-4-yl 2-thienylmethanone dihydrochloride] | 78 nM
CC(C)CC(=O)NCCNc1nc(C(=O)c2cccs2)c2sccc2n1 [Example 150, 3-Methyl-N-(2-(4-(2-thienylcarbonyl)thieno[3,2-d]pyrimidin-2-yl)aminoethyl)butanamide] | 4 nM
O=C(c1cccs1)c1nc(NCCc2cnc[nH]2)nc2ccsc12 [Example 144, 2-(2-(1H-Imidazol-4-yl)ethylamino)thieno[3,2-d]pyrimdin-4-yl 2-thienylmethanone] | 5 nM
CN(C)c1nc(C(=O)c2cccs2)c2scc(-c3ccco3)c2n1 [Example 79, 2-Dimethylamino-7-(2-furyl)thieno[3,2-d]pyrimidin-4-yl 2-thienylmethanone] | 858 nM
α-(2-Pyridyl-2-trifluoromethylthieno[3,2- d]pyrimidine-4-acetonitrile [Example 18] | 346 nM
C[C@@H](CO)Nc1nc(C(=O)c2cccs2)c2sccc2n1 [Example 101, (2S)-2-(1-Hydroxy-2-propylamino)thieno[3,2-d]pyrimidin-4-yl 2-thienylmethanone] | 7 nM
O=C(NCCNc1nc(C(=O)c2cccs2)c2sccc2n1)OCCCl [Example 158, 2-Chloroethyl (2-(4-(2-thienylcarbonyl)thieno[3,2-d]pyrimidin-2-yl)aminoethyl)carbamate] | 6 nM
CCCc1nc(C(O)c2cccs2)c2sccc2n1 (stereo not drawn) [Example 67, 2-n-Propyl-α-(2-thienyl)thieno[3,2-d]pyrimidine-4-methanol] | 469 nM
C[C@H](CO)Nc1nc(C(=O)c2cccs2)c2sccc2n1 [Example 102, (2R)-2-(1-Hydroxy-2-propylamino)thieno[3,2-d]pyrimidin-4-yl 2-thienylmethanone] | 2 nM
CNc1nc(C(=O)c2cccs2)c2sccc2n1 [Example 58, 2-Methylaminothieno[3,2-d]pyrimidin-4-yl thienylmethanone] | 15 nM
CN1CCN(c2nc(C(=O)c3cccs3)c3sccc3n2)CC1 [Example 83, 2-(4-Methylpiperazinyl)thieno[3,2-d]pyrimidin-4-yl 2-thienylmethanone] | 863 nM
